Test results from US9034323B2, “Method for control of post-prandial glucose” (Halozyme, Inc., priority 2008, dated 2015).
Where two headings read alike, the source gives them in different places.

Legend:
blood glucose = experiment: Blood glucose levels in mice after intradermal Humulin insulin with hyaluronan degrading enzymes (Example 9); assay type: in vivo, NCr nu/nu homozygous mice; settings: for Blood Glucose Level: group mean
Description: (§1) The ability of different hyaluronan degrading enzymes to act as a dispersion agent was assessed in vivo. A dispersion assay in mice was used to assess the ability of different hyaluronan degrading enzyme to act as dispersion agents of trypan blue, and also to assess the ability of the enzymes to enhance the efficacy of co-administered insulin in reducing blood glucose levels. The hyaluronan degrading enzymes assayed included rHuPH20, pegylated PH20 (PEG PH20), Hyal 1, Chondroitinase ABC, Chondroitinase AC and Streptomyces hyalurolyticus lyase. […] Both the area of dispersion of the trypan blue and the blood glucose levels were then measured. […] The ability of a low pH buffer (pH 4.5) to act as a dispersion agent also was examined.
(§2) Nine groups of NCr nu/nu homozygous mice, approximately 10 weeks of age and with body weights of 21-25 g, with 3 mice per group, were anesthetized by intraperitoneal injection of ketamine/xylazine (10:1 mixture in saline). […] The dispersion of the trypan blue dye was then measured by a caliper at 2.5, 5, 10, 15 and 20 minutes post injection. The dye dispersion area (mm^2) was calculated by multiplying the longest axis M1 (length of the dye front) and M2 (width of the dye front) by ¼π (M1M2×¼π). The blood glucose levels were measured using a glucometer at 0, 5, 10, 15 and 20 minutes

[1] = tested on: dispersion of trypan blue dye; experiment: Trypan blue dye dispersion assay in mice (Example 9); assay type: in vivo, NCr nu/nu homozygous mice; settings: for Dye Dispersion Areas: intradermal, trypan blue with 5 Units/mL Humulin insulin, enzyme 10 U/mL (Chondroitinase AC 1 U/mL, Strep lyase 100 U/mL), group mean; for increase in dye dispersion area compared to buffer only: mixed with trypan blue and Humulin insulin
Description: as §1, §2

[2] = background, cited from earlier work
[3] = tested on: plasma glucose (glucose infusion rate to maintain 90-110 mg/dL); experiment: Glucose infusion rate (GIR) pharmacodynamics, Hyperinsulinemic-Euglycemic Clamp (Example 1a); assay type: in vivo, human; settings: Mean
Description: The procedure consisted of initially obtaining the subject's weight and height and measuring the vital signs after resting in a sitting position for 5 minutes. Both arms were placed in heating pads to dilate the veins and IV catheters were then inserted. A catheter was placed into the antecubital vein of one arm for infusion of Dextrose 20% via two separate stop cocks. The other […] catheter was placed into the other arm for sampling of arterialized blood for glucose measurements. The heating pad can be removed from the glucose infusion site, but the retrograde catheter site was maintained at 65° C. An initial blood sample was obtained to measure baseline glucose 30 minutes before injection of the insulin preparations.

[4] = design: species or system Yucatan mini pigs; settings: pig, in vivo; for tmax: sc
Description: The pharmacokinetics (PK) of regular insulin, when subcutaneously administered at two different concentrations, both alone and co-administered with rHuPH20, was assessed in the porcine model described in Example 10, above. A multiple dose 4-way crossover design study was conducted to compare the PK of regular insulin at concentrations of 20 and 100 U/mL, when administered alone, to the same two concentrations after co-administration with rHuPH20. In each case, a total of 0.2 U/kg of insulin was administered.
Four test articles were prepared for dosing. […] The Insulin-PH20 U100 test article contained 3.69 mg/mL (100 U/mL) regular insulin (Lot # SIHR107; Diosynth Biotechnologies) and 20 μg/mL (approximately 2400 U/mL) rHuPH20 in 25 mM Tris, 120 mM NaCl, 0.01% Polysorbate 80, pH 7.3.
The group assignment was maintained for cycles 1 and 2.
The serum IRI concentrations were determined for each serum sample by interpolation from a standard curve using StatLIA® assay analysis software (Brendan Technologies, Carlsbad, Calif.). […] These baselines were then subtracted from the actual IRI concentrations measured at each timepoint to determine the baseline-adjusted IRI concentration.
Serum IRI versus time data were modeled by non-compartmental analysis using WinNonlin Professional model 200 (Version 5.2, Pharsight Corp., Mountain View, Calif.) and the PK parameters calculated. […] All analyses were performed using a mixed model with fixed effects for treatment. A compound symmetric covariance matrix among repeated observations for each animal was assumed. Analyses for Cmax and all AUC endpoints were performed using log-transformed values with values of zero replaced by 1 prior to log transformation (zero on the log scale). The time based endpoints were analyzed on the original linear scale.
N=16 pigs unless otherwise noted.

[5] = 5 min post injection, intradermal with 5 Units/mL Humulin insulin, enzyme 10 U/mL (Chondroitinase AC 1 U/mL, Strep lyase 100 U/mL)
[6] = 10 min post injection, intradermal with 5 Units/mL Humulin insulin, enzyme 10 U/mL (Chondroitinase AC 1 U/mL, Strep lyase 100 U/mL)
[7] = 15 min post injection, intradermal with 5 Units/mL Humulin insulin, enzyme 10 U/mL (Chondroitinase AC 1 U/mL, Strep lyase 100 U/mL)
[8] = 20 min post injection, intradermal with 5 Units/mL Humulin insulin, enzyme 10 U/mL (Chondroitinase AC 1 U/mL, Strep lyase 100 U/mL)

## Chondroitinase ABC
Blood glucose; 0 min (prior to injection)
  Blood Glucose Level: 129.67 mg/dL
Blood glucose; [5]
  Blood Glucose Level: 123.67 mg/dL
Blood glucose; [6]
  Blood Glucose Level: 65.00 mg/dL
Blood glucose; [7]
  Blood Glucose Level: 44.67 mg/dL
Blood glucose; [8]
  Blood Glucose Level: 21.00 mg/dL
Blood glucose; co-administered with Humulin insulin
  reduction of blood glucose levels compared with Humulin insulin alone: appeared to reduce levels even faster
[1]; 5 min post injection
  Dye Dispersion Areas: 75.06 mm^2
[1]; 5 minutes after injection
  average dispersion area of trypan blue dye: ~75 mm^2
[1]; 10 min post injection
  Dye Dispersion Areas: 78.60 mm^2
[1]; 10 minutes after injection
  average dispersion area of trypan blue dye: ~79 mm^2
[1]; 15 min post injection
  Dye Dispersion Areas: 81.44 mm^2
[1]; 15 minutes after injection
  average dispersion area of trypan blue dye: ~81 mm^2
[1]; 20 min post injection
  Dye Dispersion Areas: 87.85 mm^2
[1]; 20 minutes after injection
  average dispersion area of trypan blue dye: ~88 mm^2
[1]; […] after injection
  average dispersion area of trypan blue dye: about 57 mm^2
[1]; […] post injection
  Dye Dispersion Areas: 56.85 mm^2
[1]
  increase in dye dispersion area compared to buffer only: significant increase

## detemir: Long-lasting insulin, an analog
[2]
  Duration: 28 h
  Onset: 4 to 6 h
  Peak: 18 to 28 h

## Humalog ® alone
[3]; Dosing Sequence 1
  GIR AUC 0-60 min: 1910 min * mL/hr
  GIR AUC 0-120 min: 9860 min * mL/hr
  GIR AUC 0-180 min: 20700 min * mL/hr
  GIR AUC 0-240 min: 32580 min * mL/hr
  GIR AUC 0-360 min: 51650 min * mL/hr
  tmax: 185
[3]; Dosing Sequence 2
  GIR AUC 0-60 min: 2260 min * mL/hr
  GIR AUC 0-120 min: 9670 min * mL/hr
  GIR AUC 0-180 min: 19220 min * mL/hr
  GIR AUC 0-240 min: 29120 min * mL/hr
  GIR AUC 0-360 min: 44730 min * mL/hr
  tmax: 200
[3]; Dosing Sequence all
  GIR AUC 0-60 min: 2080 min * mL/hr
  GIR AUC 0-120 min: 9760 min * mL/hr
  GIR AUC 0-180 min: 19960 min * mL/hr
  GIR AUC 0-240 min: 30850 min * mL/hr
  GIR AUC 0-360 min: 48190 min * mL/hr
  tmax: 193

## Insulin U20: Humulin R insulin diluted 1:5 with sterile diluent to 20 U/mL
[4]
  AUC0-15: 80 pmol·min/L
  AUC0-30: 791 pmol·min/L
  AUClast: 20,820 pmol×min/L
  tmax: 0.95 h

## Insulin 100 U
[4]
  tmax: 1.07 ± 0.817 h

## Insulin U100: Undiluted Humulin R insulin, 100 U/mL
[4]
  AUC0-15: 20 pmol·min/L
  AUC0-30: 222 pmol·min/L
  AUClast: 9,021 pmol×min/L
  tmax: 1.07 h

## insulin glargine
[2]
  Duration: 28 h
  Onset: 4 to 6 h
  Peak: 18 to 28 h

## insulin glulisine
[2]
  Duration: 3 to 4 h
  Peak: 0.75 to 1.5 h
[2]; subcutaneous insulin
  Onset: 0.083 to 0.25 h

## Insulin 20 U
[4]
  tmax: 0.95 ± 0.7 h

B1: Hyal I (protein, UniProt Q12794 22-435, looked up)
Hyaluronidase-1: FRGPLLPNRPFTTVWNANTQWCLERHGVDVDVSVFDVVANPGQTFRGPDMTIFYSSQLGTYPYYTPTGEPVFGGLPQNASLIAHLARTFQDILAAIPAPDFSGLAVIDWEAWRPRWAFNWDTKDIYRQRSRALVQAQHPDWPAPQVEAVAQDQFQGAARAWMAGTLQLGRALRPRGLWGFYGFPDCYNYDFLSPNYTGQCPSGIRAQNDQLGWLWGQSRALYPSIYMPAVLEGTGKSQMYVQHRVAEAFRVAVAAGDPNLPVLPYVQIFYDTTNHFLPLDELEHSLGESAAQGAAGVVLWVSWENTRTKESCQAIKEYMDTTLGPFILNVTSGALLCSQALCSGHGRCVRRTSHPKALLLLNPASFSIQLTPGGGPLSLRGALSLEDQAQMAVEFKCRCYPGWQAPWCERKSMW
Blood glucose; 0 min (prior to injection)
  Blood Glucose Level: 155.67 mg/dL
Blood glucose; [5]
  Blood Glucose Level: 201.33 mg/dL
Blood glucose; [6]
  Blood Glucose Level: 144.33 mg/dL
Blood glucose; [7]
  Blood Glucose Level: 77.00 mg/dL
Blood glucose; [8]
  Blood Glucose Level: 52.67 mg/dL
[1]; 5 min post injection
  Dye Dispersion Areas: 36.27 mm^2
[1]; 10 min post injection
  Dye Dispersion Areas: 39.60 mm^2
[1]; 15 min post injection
  Dye Dispersion Areas: 46.41 mm^2
[1]; 20 min post injection
  Dye Dispersion Areas: 48.21 mm^2
[1]; […] post injection
  Dye Dispersion Areas: 31.53 mm^2

B2: Hyal 1: Hyaluronan degrading enzyme; acid-active human hyaluronidase (protein, listed as Homo sapiens)
chain: MAAHLLPICALFLTLLDMAQGFRGPLLPNRPFTTVWNANTQWCLERHGVDVDVSVFDVVANPGQTFRGPDMTIFYSSQLGTYPYYTPTGEPVFGGLPQNASLIAHLARTFQDILAAIPAPDFSGLAVIDWEAWRPRWAFNWDTKDIYRQRSRALVQAQHPDWPAPQVEAVAQDQFQGAARAWMAGTLQLGRALRPRGLWGFYGFPDCYNYDFLSPNYTGQCPSGIRAQNDQLGWLWGQSRALYPSIYMPAVLEGTGKSQMYVQHRVAEAFRVAVAAGDPNLPVLPYVQIFYDTTNHFLPLDELEHSLGESAAQGAAGVVLWVSWENTRTKESCQAIKEYMDTTLGPFILNVTSGALLCSQALCSGHGRCVRRTSHPKALLLLNPASFSIQLTPGGGPLSLRGALSLEDQAQMAVEFKCRCYPGWQAPWCERKSMW
modifications: Hyaluronidase-1 [Precursor]
[1]
  increase in dye dispersion area compared to buffer only: no statistically significant increase
